Experimental data from patent publication US8329699B2, “Pyrrolopyrazine kinase inhibitors” (Hoffmann-La Roche Inc., priority 2010, dated 2012).
Several values for one entry are separate records, joined by “and”; a condition that tells them apart may be missing. Identical values can stand only once.

How the values were obtained:
[1] = biological target: T1, JAK3: Recombinant human kinase domain (h-jak3-sf21-c) (Homo sapiens, UniProt P52333); test: Determination of IC50 of Janus Kinase (JAK) inhibition, JAK3 (radioactive end-point assay with 33P-ATP); format: biochemical; conditions: ATP 1.5 uM, peptide 50 uM, 20 minutes, room temperature
T1 construct: JAK3: Recombinant human kinase domain from Millipore (Cat # 14-629) or prepared; purchased Millipore 14-629
Excerpt: Determination of IC50 of Janus Kinase (JAK) Inhibition:
Enzymes and peptide substrate used are described below: • JAK1: Recombinant human kinase domain from Invitrogen (Cat # PV4774) • JAK3: Recombinant human kinase domain from Millipore (Cat # 14-629) or prepared. • JAK2: Recombinant human kinase domain from Millipore (Cat # 14-640) • Substrate: N-terminally biotinylated 14-mer peptide derived from activation loop of JAK1 with sequence of the peptide substrate: Biotin-[…]
Assay conditions used are described below: • Assay Buffer: JAK Kinase Buffer: 50 mM Hepes [pH 7.2], 10 mM MgCl2, 1 mM DTT, 1 mg/mL BSA. The assay is carried out in this buffer. • Assay Format The kinase activity of all three JAK kinases is measured using a radioactive, end-point assay and with trace amounts of^33P-ATP. The assays are carried out in 96-well polypropylene plates. Experimental Method:
All concentrations are final in the reaction mixture and all incubations are carried at room temperature. Assay steps are described below: • 1) Compounds are serially diluted in 100% DMSO typically at a 10× starting concentration of 1 mM. Final concentration of DMSO in the reaction is 10%. • 2) Compounds are preincubated with enzyme (0.5 nM JAK3 (commercially available), 0.2 nM JAK3 (prepared), 1 nM JAK2, 5 nM JAK1) for 10 minutes. • 3) Reactions are initiated by the addition of a cocktail of the two substrates (ATP and peptide premixed in the JAK Kinase Buffer). In the JAK2/JAK3 assays, ATP and the peptide are used at concentrations of 1.5 uM and 50 uM, respectively. JAK1 assay is carried out at an ATP concentration of 10 uM and a peptide concentration of 50 uM. • 4) The duration of the assay for JAK2 and JAK3 is 20 minutes. JAK1 assay is carried out for 40 minutes. With all three enzymes, reactions are terminated by the addition of 0.5M EDTA to a final concentration of 100 mM. • 5) 25 ul of terminated reactions are transferred to 150 ul of a 7.5% (v/v) slurry of streptavidin-coated sepharose beads in MgCl2- and CaCl2-free 1× Phosphate Buffered Saline containing 50 mM of EDTA in 96-well, 1.2 um MultiScreen-BV filter plates. • 6) After a 30-minute incubation, the beads are washed under vacuum with the following buffers: • a. 3 to 4 washes with 200 ul of 2M NaCl. • b. 3 to 4 washes with 200 ul of 2M NaCl plus 1% (v/v) phosphoric acid. • c. 1 wash with water. • 7) Washed plates are dried in a 60° C. oven for between 1 to 2 hours. • 8) 70 ul of Microscint 20 scintillation fluid is added to each well of filter plates and after at least 30 minutes of incubation, radioactive counts are measured in a Perkinelmer microplate scintillation counter.

T1 sequence (P52333 822-1111 limits assumed): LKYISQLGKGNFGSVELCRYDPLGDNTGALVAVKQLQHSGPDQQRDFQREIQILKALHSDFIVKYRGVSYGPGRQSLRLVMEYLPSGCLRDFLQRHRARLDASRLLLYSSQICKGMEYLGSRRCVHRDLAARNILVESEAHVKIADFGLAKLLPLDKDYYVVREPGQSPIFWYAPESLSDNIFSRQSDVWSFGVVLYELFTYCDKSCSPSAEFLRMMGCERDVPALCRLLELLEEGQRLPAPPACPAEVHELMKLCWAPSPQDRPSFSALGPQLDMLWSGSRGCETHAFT

SMILES	IC50 [1] [nM]	melting point
O=C(NC1CCCCC1)c1c[nH]c2ncc(C3CC3)nc12 [Compound I-22, 2-Cyclopropyl-5H-pyrrolo[2,3-b]pyrazine-7-carboxylic acid cyclohexylamide]	5.2	> 300 °C
N#CCC1(NC(=O)c2c[nH]c3ncc(C4CC4)nc23)CCCC1 [Compound I-26, 2-Cyclopropyl-5H-pyrrolo[2,3-b]pyrazine-7-carboxylic acid (1-cyanomethyl-cyclopentyl)-amide]	26.3	280 to 281.1 °C and 280 to 281 °C
CC1(C)CCCCC1NC(=O)c1c[nH]c2ncc(C3CC3)nc12 (stereo not drawn) [Compound I-32, 2-Cyclopropyl-5H-pyrrolo[2,3-b]pyrazine-7-carboxylic acid (2,2-dimethyl-cyclohexyl)-amide]	1.1	295 to 297 °C
O=C(NC1CCCCC1)c1c[nH]c2ncc(Oc3ccccc3)nc12 [Compound I-33, 2-Phenoxy-5H-pyrrolo[2,3-b]pyrazine-7-carboxylic acid cyclohexylamide]	153	255 to 257 °C
O=C(NC1CCCCC1)c1c[nH]c2ncc(Oc3ccc(F)cc3F)nc12 [Compound I-34, 2-(2,4-Difluoro-phenoxy)-5H-pyrrolo[2,3-b]pyrazine-7-carboxylic acid cyclohexylamide]	424	245 to 247 °C
CC(=O)N1CCC(NC(=O)c2c[nH]c3ncc(C4CC4)nc23)CC1 [Compound I-36, 2-Cyclopropyl-5H-pyrrolo[2,3-b]pyrazine-7-carboxylic acid (1-acetyl-piperidin-4-yl)-amide]	167	273 to 275 °C

Now from value to compound:

IC50 [1] [nM]	melting point	SMILES
13.3	> 300 °C	O=C(NC1CCCC1)c1c[nH]c2ncc(C3CC3)nc12 [Compound I-23, 2-Cyclopropyl-5H-pyrrolo[2,3-b]pyrazine-7-carboxylic acid cyclopentylamide]
8	284 to 287 °C	CS(=O)(=O)N1CCCC(NC(=O)c2c[nH]c3ncc(C4CC4)nc23)C1 (stereo not drawn) [Compound I-24, 2-Cyclopropyl-5H-pyrrolo[2,3-b]pyrazine-7-carboxylic acid (1-methanesulfonyl-piperidin-3-yl)-amide]
17.3	266 to 269 °C	CCS(=O)(=O)N1CCCC(NC(=O)c2c[nH]c3ncc(C4CC4)nc23)C1 (stereo not drawn) [Compound I-27, 2-Cyclopropyl-5H-pyrrolo[2,3-b]pyrazine-7-carboxylic acid (1-ethanesulfonyl-piperidin-3-yl)-amide]
22	228 to 230 °C	CCCS(=O)(=O)N1CCCC(NC(=O)c2c[nH]c3ncc(C4CC4)nc23)C1 (stereo not drawn) [Compound I-28, 2-Cyclopropyl-5H-pyrrolo[2,3-b]pyrazine-7-carboxylic acid [1-(propane-1-sulfonyl)-piperidin-3-yl]-amide]
73.2	255 to 258 °C	CC(C)S(=O)(=O)N1CCCC(NC(=O)c2c[nH]c3ncc(C4CC4)nc23)C1 (stereo not drawn) [Compound I-29, 2-Cyclopropyl-5H-pyrrolo[2,3-b]pyrazine-7-carboxylic acid [1-(propane-2-sulfonyl)-piperidin-3-yl]-amide]
55.5	278 to 281 °C	CS(=O)(=O)N1CCC[C@H](NC(=O)c2c[nH]c3ncc(C4CC4)nc23)C1 [Compound I-30, 2-Cyclopropyl-5H-pyrrolo[2,3-b]pyrazine-7-carboxylic acid ((S)-1-methanesulfonyl-piperidin-3-yl)-amide]
3.7	277 to 280 °C	CS(=O)(=O)N1CCC[C@@H](NC(=O)c2c[nH]c3ncc(C4CC4)nc23)C1 [Compound I-31, 2-Cyclopropyl-5H-pyrrolo[2,3-b]pyrazine-7-carboxylic acid ((R)-1-methanesulfonyl-piperidin-3-yl)-amide]
120	242 to 245 °C	CC(=O)N1CCC(NC(=O)c2c[nH]c3ncc(C4CC4)nc23)C1 (stereo not drawn) [Compound I-37, 2-Cyclopropyl-5H-pyrrolo[2,3-b]pyrazine-7-carboxylic acid (1-acetyl-pyrrolidin-3-yl)-amide]
74.2	215 to 218 °C	CC(=O)N1CCCC(NC(=O)c2c[nH]c3ncc(C4CC4)nc23)C1 (stereo not drawn) [Compound I-38, 2-Cyclopropyl-5H-pyrrolo[2,3-b]pyrazine-7-carboxylic acid (1-acetyl-piperidin-3-yl)-amide]
